Reference: patent US20170042890A1, “METHODS OF REDUCING DECLINE IN VITAL CAPACITY” (Cytokinetics, Inc., priority 2014, published 2017)

What was measured:
muscle = conditions: other model systems; cited from earlier work
[1] = BENEFIT-ALS clinical trial: body weight; format: in vivo; conditions: N=178
Procedure: (§1) BENEFIT-ALS was a multi-national, randomized, stratified, double-blind, placebo-controlled, parallel-group study of tirasemtiv in patients with ALS. The study consisted of a screening period, an open-label/lead-in period, and a double-blind treatment period. Following screening, eligible patients received open-label tirasemtiv, 125 mg BID, for 7 days. Patients who tolerated the 7-day lead-in period were randomized in a 1:1 ratio to tirasemtiv or placebo. Over the first 3 weeks of double-blind treatment, patients randomized to tirasemtiv had their TDD up-titrated as follows: 250 mg for 7 days, then 375 mg for 7 days, then 500 mg for 7 days. […] However, in such cases, dose escalation was re-attempted at least one additional time. The highest tolerable tirasemtiv dose for each individual patient was the dose that patient received for the remaining 9 weeks (i.e., the maximum tolerated dose [MTD] phase) of the study. Patients randomized to placebo underwent a corresponding dummy dose titration.
(§2) Safety data presented were based on the safety analysis set, defined as all patients who received at least 1 dose of double-blind study drug. Of the 605 randomized patients, 596 (295 placebo, 301 tirasemtiv) received at least 1 dose of double-blind study drug and were included in the safety analysis set. Data for the primary and secondary efficacy endpoints were analyzed with the Modified FAS. This analysis set included all patients who received at least 1 dose of double-blind study drug and had at least 1 efficacy assessment during the double-blind treatment period, and excluded 156 patients who were randomized in blocks containing patients affected by a study drug assignment error in which 58 patients randomized to and treated with double-blind tirasemtiv were dispensed double-blind placebo instead. Based on these criteria, the Modified FAS consisted of 388 patients (210 placebo, 178 tirasemtiv).

cardiac muscle troponin = conditions: cited from earlier work
patients with ALS [2] = test: BENEFIT-ALS clinical trial: muscle strength mega-score; format: in vivo, human; conditions: for Muscle strength mega-score change from baseline (LS mean): based on percent change from baseline across several muscle groups
Procedure: as §1
(§3) Randomization was stratified by riluzole use. […] Clinical assessments occurred every 4 weeks during double-blind treatment; patients also returned for follow-up evaluations at 1 and 4 weeks after their final dose of double-blind study medication (FIG. 1).
(§4) The secondary objectives included assessments of the effect of tirasemtiv versus placebo on measures of respiratory function (Maximum Voluntary Ventilation (MVV), Sniff Nasal Inspiratory Pressure (SNIP), SVC) and skeletal muscle function including handgrip fatigue and muscle-strength mega-score (i.e., the average z-score for muscle strength measurements across the following tested bilateral muscle groups: elbow flexion, wrist extension, knee extension, ankle dorsiflexion, and handgrip)). Secondary endpoints included the changes from baseline in each of the above mentioned measures (MVV, SNIP, SVC, and muscle-strength mega-score) for the Modified FAS, and the slope of each of the measures from baseline to Week 12 for the Modified FAS.
(§5) Eligible patients were males and females, 18 years of age and older, with a diagnosis of familial or sporadic ALS and meeting the World Federation of Neurology El Escorial criteria of definite ALS, probable ALS, laboratory-supported probable ALS, or possible ALS. Patients were to have an upright SVC>50% of predicted for age, height, and sex, a diminished, but measurable, maximum voluntary grip strength in at least one hand (i.e., between 10-50 pounds for females and 10-70 pounds for males), and at least 4 of the 12 ALSFRS-R questions were to have been scored as a 2 or 3. Patients were to be able to swallow tablets without crushing, and in the opinion of the investigator, were expected to do so for the duration of the study. If the patient needed a caregiver, the caregiver was to be able to observe the patient's status. Clinical laboratory results were to be either within their respective normal ranges or if outside the normal range, deemed not clinically significant by the investigator. […] Patients not taking riluzole prior to study entry were not permitted to take riluzole at any dose during the course of the study.
as §2, with “Based on these criteria, the Modified FAS consisted of 388 patients (210 placebo, 178 tirasemtiv).” left out

[3] = test system: slow skeletal muscle troponin; conditions: cited from earlier work
[4] = test system: fast skeletal muscle troponin complex; conditions: cited from earlier work
patients with ALS [5] = test: BENEFIT-ALS clinical trial: handgrip fatigue at 60% of target in the weaker hand; format: in vivo, human
Procedure: as §1, §3, §4, §5
as §2, with “Based on these criteria, the Modified FAS consisted of 388 patients (210 placebo, 178 tirasemtiv).” left out

patients with ALS [6] = test: BENEFIT-ALS clinical trial: ALSFRS-R total score; format: in vivo, human; conditions: Modified FAS
Procedure: as §1
Randomization was stratified by riluzole use. […] Clinical assessments occurred every 4 weeks during double-blind treatment; patients also returned for follow-up evaluations at 1 and 4 weeks after their final dose of double-blind study medication (FIG. 1). […]
Eligible patients were males and females, 18 years of age and older, with a diagnosis of familial or sporadic ALS and meeting the World Federation of Neurology El Escorial criteria of definite ALS, probable ALS, laboratory-supported probable ALS, or possible ALS. Patients were to have an upright SVC>50% of predicted for age, height, and sex, a diminished, but measurable, maximum voluntary grip strength in at least one hand (i.e., between 10-50 pounds for females and 10-70 pounds for males), and at least 4 of the 12 ALSFRS-R questions were to have been scored as a 2 or 3. […]
Safety data presented were based on the safety analysis set, defined as all patients who received at least 1 dose of double-blind study drug. […] Data for the primary and secondary efficacy endpoints were analyzed with the Modified FAS. […]

patients with ALS [7] = test: BENEFIT-ALS clinical trial: slow vital capacity (SVC); format: in vivo, human
Procedure: as §1, §3, §4, §5
as §2, with “Based on these criteria, the Modified FAS consisted of 388 patients (210 placebo, 178 tirasemtiv).” left out

patients with ALS [8] = test: BENEFIT-ALS clinical trial: Maximum Voluntary Ventilation (MVV); format: in vivo, human
Procedure: as §1, §3, §4, §5
as §2, with “Based on these criteria, the Modified FAS consisted of 388 patients (210 placebo, 178 tirasemtiv).” left out

SMILES: C#Cc1cnc2nc(O)n(C(CC)CC)c2n1 [Tirasemtiv, 6-ethynyl-1-(pentan-3-yl)-1H-imidazo[4,5-b]pyrazin-2(3H)one]
- Fatigability of muscle (muscle): decreased fatigability of muscle
- Muscle power (muscle): increased muscle power
- Weight change from baseline, LS mean ([1]; Week 4): -0.83 kg
- Weight change from baseline, LS mean ([1]; Week 8): -1.30 kg
- Weight change from baseline, LS mean ([1]; Week 12): -1.70 kg
- Effect on cardiac muscle troponin (cardiac muscle troponin): no effect
- Muscle strength mega-score slope from baseline to Week 12 (patients with ALS [2]; Modified FAS N=178): −0.1104
- Muscle strength mega-score change from baseline (LS mean) (patients with ALS [2]; Week 4): −4.36
- Muscle strength mega-score change from baseline (LS mean) (patients with ALS [2]; Week 8): −7.43
- Muscle strength mega-score change from baseline (LS mean) (patients with ALS [2]; Week 12): −10.78
- Muscle strength mega-score difference in slope (tirasemtiv vs placebo) (patients with ALS [2]; p=0.0158): 0.1647
- Muscle strength mega-score decline versus placebo, in words (patients with ALS [2]; p=0.0158 for the difference in slope): declined more slowly
- Effect on slow skeletal muscle troponin [3]: little effect
- Activity on fast skeletal muscle troponin complex [4]: highly selective activator
- Rate of calcium release from fast skeletal TnC [4]: slows the rate of calcium release
- Handgrip fatigue slope from baseline to Week 12 (patients with ALS [5]; Modified FAS N=178): 0.0458
- Handgrip fatigue at 60% of target in the weaker hand, change from baseline (LS mean) (patients with ALS [5]; Week 4, Modified FAS N=178): -1.77 s
- Handgrip fatigue at 60% of target in the weaker hand, change from baseline (LS mean) (patients with ALS [5]; Week 8, Modified FAS N=178): 4.60 s
- Handgrip fatigue at 60% of target in the weaker hand, change from baseline (LS mean) (patients with ALS [5]; Week 12, Modified FAS N=178): -0.57 s
- Handgrip fatigue versus placebo, in words (patients with ALS [5]; human, in vivo): no statistically significant difference between treatment groups
- Handgrip fatigue difference in slope (tirasemtiv vs placebo) (patients with ALS [5]; p=0.6372): 0.0332
- ALSFRS total score change versus placebo, in words (patients with ALS [6]; Visits 6 and 7): not statistically different between treatment groups
- LS mean±SE difference between treatment groups (tirasemtiv response minus placebo response) in ALSFRS total score change (patients with ALS [6]; Visits 6 and 7, 95% CI −1.30, 0.14, p=0.114): −0.58±0.366
- LS mean change from baseline to the average of ALSFRS total score at Visits 6 and 7 (patients with ALS [6]; after approx. 8 and 12 weeks double-blind, tirasemtiv BID up to 500 mg/day): −2.98
- SVC slope of changes from baseline to Week 12 (patients with ALS [7]; Modified FAS N=178): −0.0394
- SVC change from baseline (LS mean) (patients with ALS [7]; Week 4, Modified FAS N=178): −0.99 % predicted
- SVC change from baseline (LS mean) (patients with ALS [7]; Week 8, Modified FAS N=178): −2.85 % predicted
- SVC change from baseline (LS mean) (patients with ALS [7]; Week 12, Modified FAS N=178): −3.12 % predicted
- SVC change from baseline (LS mean), post-treatment (patients with ALS [7]; Week 13, 1 week after last dose of double-blind study drug): −3.75 % predicted
- SVC change from baseline (LS mean), post-treatment (patients with ALS [7]; Week 16, 4 weeks after last dose of double-blind study drug): −5.39 % predicted
- LS mean±SE change from baseline in SVC (patients with ALS [7]; after 12 weeks of treatment): −3.12%
- SVC difference in slope (tirasemtiv vs placebo) (patients with ALS [7]; baseline to Week 12, p=0.0006): 0.051
- Treatment difference in change from baseline to average SVC after 8 and 12 weeks (patients with ALS [7]; subgroup: baseline SVC>median at baseline, p<0.0001): 6.02%
- Treatment difference in change from baseline to average SVC after 8 and 12 weeks (patients with ALS [7]; subgroup: females, p=0.012): 6.84%
- Treatment difference in change from baseline to average SVC after 8 and 12 weeks (patients with ALS [7]; subgroup: non-riluzole users, p=0.0005): 6.55%
- Effect on decline of SVC, in words (patients with ALS [7]; versus placebo): statistically significant and potentially clinically meaningful reduction in the decline of SVC
- MVV slope from baseline to Week 12 (patients with ALS [8]; Modified FAS N=178): −0.0567
- MVV change from baseline (LS mean) (patients with ALS [8]; Week 4, Modified FAS N=178): -2.89 L/min
- MVV change from baseline (LS mean) (patients with ALS [8]; Week 8, Modified FAS N=178): -2.14 L/min
- MVV change from baseline (LS mean) (patients with ALS [8]; Week 12, Modified FAS N=178): -5.45 L/min
- MVV versus placebo, in words (patients with ALS [8]; human, in vivo): no statistically significant difference between treatment groups
- MVV difference in slope (tirasemtiv vs placebo) (patients with ALS [8]; p=0.8799): 0.0044
